Active and inactive are the calls of the source. How the calls were made is not given here.

This note sets out measurements from ChEMBL document CHEMBL3714755, “Pyridinyl amides as P2X3 and P2X2/3 inhibitors” (2014).

The assay addresses P2X2/P2X3 heterotrimeric receptor (Homo sapiens) (UniProt Q9UBL9+P56373). The assay can be described thus: Antagonist activity against human P2X2/3 receptor expressed in CHOK1 cells assessed as inhibition of alpha,beta-meATP-induced calcium response incubated for 20 mins by Fluo-3AM dye based FLIPR assay. The assay is classed as functional, cell-based. The following applies: CHO-K1.

Consider `Cc1ccc(-c2cc(C(=O)NCc3cnccn3)cc(N(C)C(=O)C(C)C)c2)c(Cl)c1`, for which the inhibition result is “Active”.
`Cc1ccc(-c2cc(C(=O)NC(C)c3cnccn3)cc(N(C)C(=O)C(C)C)c2)c(F)c1` (configuration not stated): the inhibition entry is “Active”.
On to `COCC(C)NC(=O)c1cc(NC(=O)C2CCCCC2)cc(-c2ccc(C)cc2)c1` (configuration not stated), for which the inhibition result was “Active”.
In the case of `CCN(C(=O)COC)c1cc(C(=O)NC(C)c2cnccn2)cc(-c2ccc(C)cc2)c1` (configuration not stated), the inhibition entry is “Active”.
Take `CCN(C(C)=O)c1cc(C(=O)NC(C)c2cnccn2)cc(-c2ccc(C)cc2)c1` (configuration not stated): the inhibition result was “Active”.
The same measure for `CCN(C(=O)OC(C)C)c1cc(C(=O)NC(C)c2cnccn2)cc(-c2ccc(C)cc2)c1` (configuration not stated): “Active”; for `COCC(C)NC(=O)c1cc(NC(=O)c2ccco2)cc(-c2ccc(C)cc2)c1` (configuration not stated): “Active”; for `Cc1ccc(-c2cc(C(=O)NC(C)c3cnccn3)cc(N(C)C(=O)C3CCCC3)c2)cc1` (configuration not stated): “Active”.
The same measure for `COCC(C)NC(=O)c1cc(NC(=O)c2ccc(C)cc2C)cc(-c2ccc(C)cc2)c1` (configuration not stated): “Active”; for `CCC(=O)N(C)c1cc(C(=O)NC(C)COC)cc(-c2ccc(C)cc2)c1` (configuration not stated): “Active”; for `Cc1ccc(-c2cc(C(=O)NCc3cnccn3)cc(N(C)C(=O)C(C)C)c2)cc1`: “Active”.
As to `COCC(C)NC(=O)c1cc(NC(=O)c2ccc(F)cc2Cl)cc(-c2ccc(C)cc2)c1` (configuration not stated), the inhibition entry is “Active”.
On to `Cc1ccc(-c2cc(C(=O)NC(C)c3cnccn3)cc(N(C)C(=O)c3snnc3C)c2)cc1` (configuration not stated), for which the inhibition result is “Active”.
The same measure for `Cc1ccc(-c2cc(C(=O)NC(C)c3cnccn3)cc(N(C)C(=O)C3CCOCC3)c2)cc1` (configuration not stated): “Active”.
Turning to `CCN(C(=O)c1cccnc1)c1cc(C(=O)NC(C)c2cnccn2)cc(-c2ccc(C)cc2)c1` (configuration not stated), the inhibition entry was “Active”.
As for `CC(C)C(=O)N(C)c1cc(C(=O)NC(C)c2cnccn2)cc(-c2ccc(Cl)cn2)c1` (configuration not stated), the inhibition entry is “Active”.
As for `CCNC(=O)N(C)c1cc(C(=O)NC(C)c2cnccn2)cc(-c2ccc(Cl)cc2)c1` (configuration not stated), the inhibition entry is “Active”.
As to `CC(C)C(=O)N(C)c1cc(C(=O)N[C@@H](C)CO)cc(-c2ccc(Cl)cn2)c1`, the inhibition result was “Active”.
The same measure for `Cc1ccc(-c2cc(C(=O)NC(C)c3cnccn3)cc(N(C)C(=O)C(C)(C)C)c2)cc1` (configuration not stated): “Active”.
Turning to `CCN(C(=O)OCC(C)C)c1cc(C(=O)NC(C)c2cnccn2)cc(-c2ccc(C)cc2)c1` (configuration not stated), the inhibition entry is “Active”.
`CCN(C(=O)c1ccncc1)c1cc(C(=O)NC(C)COC)cc(-c2ccc(C)cc2)c1` (configuration not stated): the inhibition result was “Active”.
In the case of `CC(C)C(=O)N(C)c1cc(C(=O)NC(C)c2cnccn2)cc(-c2ccc(Cl)cc2Cl)c1` (configuration not stated), the inhibition entry is “Active”.
For `CCC(C)C(=O)N(C)c1cc(C(=O)NC(C)c2cnccn2)cc(-c2ccc(C)cc2)c1` (configuration not stated), the inhibition result is “Active”.
As to `Cc1ccc(-c2cc(NC(=O)C(C)C)cc(C(=O)NC(C)c3cnccn3)c2)cc1` (configuration not stated), the inhibition result is “Active”.
In the case of `CCC(C)(C)C(=O)N(C)c1cc(C(=O)NC(C)c2cnccn2)cc(-c2ccc(C)cc2)c1` (configuration not stated), the inhibition result was “Active”.
The same measure for `Cc1ccc(-c2cc(C(=O)N[C@@H](C)CO)cc(N(C)C(=O)C(C)C)c2)nc1`: “Active”; for `CCN(C(=O)OC)c1cc(C(=O)NC(C)c2cnccn2)cc(-c2ccc(C)cc2)c1` (configuration not stated): “Active”; for `COCC(C)NC(=O)c1cc(NC(=O)c2nc(C)oc2C)cc(-c2ccc(C)cc2)c1` (configuration not stated): “Active”.
On to `COCC(C)NC(=O)c1cc(NC(=O)c2cscc2OC)cc(-c2ccc(C)cc2)c1` (configuration not stated), for which the inhibition result was “Active”.
Take `Cc1ccc(-c2cc(C(=O)NC(C)c3cnccn3)cc(N(C)C(=O)C3CCCCC3)c2)cc1` (configuration not stated): the inhibition entry is “Active”.
For the molecule `COC[C@@H](C)NC(=O)c1cc(-c2ccc(Cl)cc2Cl)cc(N(C)C(=O)C(C)C)c1`, the inhibition entry is “Active”.
On to `CCN(c1cc(C(=O)NC(C)c2cnccn2)cc(-c2ccc(C)cc2)c1)c1cnccn1` (configuration not stated), for which the inhibition entry is “Active”.
The same measure for `CC(=O)N(C)c1cc(C(=O)NC(C)c2cnccn2)cc(-c2ccc(C)cc2)c1` (configuration not stated): “Active”.
With `Cc1ccc(-c2cc(C(=O)N[C@@H](C)CO)cc(N(C)C(=O)C(C)C)c2)c(Cl)c1`, the inhibition result was “Active”.
For the molecule `COCC(C)NC(=O)c1cc(NC(=O)c2ccccc2)cc(-c2ccc(C)cc2)c1` (configuration not stated), the inhibition entry is “Active”.
The same measure for `CCC(=O)N(C)c1cc(C(=O)N[C@H](C)CN2CCOCC2)cc(-c2ccc(C)cc2)c1`: “Active”.
The same measure for `CC(C)C(=O)N(C)c1cc(C(=O)NC(C)c2cnccn2)cc(-c2ccc(F)cc2F)c1` (configuration not stated): “Active”.
On to `Cc1ccc(-c2cc(C(=O)N[C@@H](C)CO)cc(N(C)C(=O)C3CCCC3)c2)cc1`, for which the inhibition entry is “Active”.
Turning to `Cc1ccc(-c2cc(C(=O)NC(C)c3cnccn3)cc(N(C)C(=O)C(C)C)c2)cc1` (configuration not stated), the inhibition result was “Active”.
`CC(C)C(=O)N(C)c1cc(C(=O)NCc2cnccn2)cc(-c2ccc(Cl)cn2)c1`: the inhibition entry is “Active”.
Regarding `COCC(C)NC(=O)c1cc(NC(=O)c2cccs2)cc(-c2ccc(C)cc2)c1` (configuration not stated), the inhibition entry is “Active”.
On to `CCC(C)C(=O)N(C)c1cc(C(=O)N[C@@H](C)CO)cc(-c2ccc(C)cc2)c1` (some centres not stated), for which the inhibition entry was “Active”.
For `CCN(C(=O)CC(C)C)c1cc(C(=O)NC(C)c2cnccn2)cc(-c2ccc(C)cc2)c1` (configuration not stated), the inhibition entry is “Active”.
Regarding `COCC(C)NC(=O)c1cc(NC(=O)c2c(-c3ccccc3)noc2C)cc(-c2ccc(C)cc2)c1` (configuration not stated), the inhibition result is “Active”.
For `Cc1ccc(-c2cc(C(=O)N[C@@H](C)CO)cc(N(C)C(=O)C(C)C)c2)c(F)c1`, the inhibition result is “Active”.
In the case of `Cc1ccc(-c2cc(C(=O)NCc3cnc(C)cn3)cc(N(C)C(=O)C(C)C)c2)nc1`, the inhibition result was “Active”.
In the case of `CCN(C(=O)C1CCOCC1)c1cc(C(=O)NC(C)c2cnccn2)cc(-c2ccc(C)cc2)c1` (configuration not stated), the inhibition result was “Active”.
Turning to `COC[C@@H](C)NC(=O)c1cc(-c2ccc(F)cc2F)cc(N(C)C(=O)C(C)C)c1`, the inhibition entry was “Active”.
As to `CCC(=O)N(c1cc(C(=O)NC(C)c2cnccn2)cc(-c2ccc(C)cc2)c1)c1ccncn1` (configuration not stated), the inhibition entry was “Active”.
With `Cc1ccc(-c2cc(C(=O)N[C@@H](C)CO)cc(N(C)C(=O)C(C)C)c2)cc1`, the inhibition entry is “Active”.
`CC(=O)N1CCC(C(=O)N(C)c2cc(C(=O)NC(C)c3cnccn3)cc(-c3ccc(C)cc3)c2)CC1` (configuration not stated): the inhibition result was “Active”.
Under `COCC(C)NC(=O)c1cc(NC(=O)c2ccccn2)cc(-c2ccc(C)cc2)c1` (configuration not stated) stands “Active”; under `CCC(CC)C(=O)N(C)c1cc(C(=O)NC(C)c2cnccn2)cc(-c2ccc(C)cc2)c1` (configuration not stated), “Active”.
Turning to `COCC(C)NC(=O)c1cc(NC(=O)c2sccc2C)cc(-c2ccc(C)cc2)c1` (configuration not stated), the inhibition result is “Active”.
Consider `CCN(C(=O)CC(C)C)c1cc(C(=O)NC(C)CO)cc(-c2ccc(C)cc2)c1` (configuration not stated), for which the inhibition result is “Active”.
On to `CC(=O)N(c1cc(C(=O)NC(C)c2cnccn2)cc(-c2ccc(C)cc2)c1)c1ccncn1` (configuration not stated), for which the inhibition result is “Active”.
Under `COCC(=O)N(C)c1cc(C(=O)NC(C)c2cnccn2)cc(-c2ccc(C)cc2)c1` (configuration not stated) stands “Active”; under `COCC(C)NC(=O)c1cc(NC(=O)c2ccc(C(F)(F)F)cc2Cl)cc(-c2ccc(C)cc2)c1` (configuration not stated), “Active”.
Take `COCC(C)NC(=O)c1cc(NC(=O)c2cc(C)nn2C)cc(-c2ccc(C)cc2)c1` (configuration not stated): the inhibition entry is “Active”.
As for `CC(NC(=O)c1cc(-c2ccc(Cl)cc2)cc(N(C)C(=O)N(C)C)c1)c1cnccn1` (configuration not stated), the inhibition entry was “Active”.
In the case of `Cc1ccc(-c2cc(C(=O)NC(C)c3cnccn3)cc(N(C)C(=O)C(C)C)c2)nc1` (configuration not stated), the inhibition entry was “Active”.
Consider `Cc1ccc(-c2cc(C(=O)NC(C)c3cnccn3)cc(N(C)C(=O)C(C)C)c2)c(Cl)c1` (configuration not stated), for which the inhibition entry is “Active”.
Take `COCC(C)NC(=O)c1cc(NC(=O)c2ccc(C)s2)cc(-c2ccc(C)cc2)c1` (configuration not stated): the inhibition entry is “Active”.
As for `Cc1ccc(-c2cc(C(=O)NC(C)c3cnccn3)cc(N(C(=O)C(C)C)c3ccncn3)c2)cc1` (configuration not stated), the inhibition entry is “Active”.
With `Cc1ccc(-c2cc(C(=O)NCc3cnccn3)cc(N(C)C(=O)C(C)C)c2)c(F)c1`, the inhibition result is “Active”.
Regarding `Cc1ccc(-c2cc(C(=O)NCc3cnc(C)cn3)cc(N(C)C(=O)C3(C)COC3)c2)nc1`, the inhibition entry is “Active”.
As for `COCC(C)NC(=O)c1cc(NC(=O)c2cc(C)on2)cc(-c2ccc(C)cc2)c1` (configuration not stated), the inhibition entry is “Active”.
On to `COCC(C)NC(=O)c1cc(NC(=O)c2cc(C)cs2)cc(-c2ccc(C)cc2)c1` (configuration not stated), for which the inhibition entry was “Active”.
`CC(NC(=O)c1cc(-c2ccc(Cl)cc2)cc(N(C)C(=O)N2CCOCC2)c1)c1cnccn1` (configuration not stated): the inhibition entry was “Active”.
As to `CCN(C(=O)C(C)C)c1cc(C(=O)N[C@@H](C)CO)cc(-c2ccc(C)cc2)c1`, the inhibition entry was “Active”.
Take `COCC(C)NC(=O)c1cc(NC(=O)c2cscn2)cc(-c2ccc(C)cc2)c1` (configuration not stated): the inhibition result was “Active”.
Regarding `CCN(C(=O)C(C)C)c1cc(C(=O)NC(C)c2cnccn2)cc(-c2ccc(C)cc2)c1` (configuration not stated), the inhibition result is “Active”.
